Like-named read-outs stand apart in the source and are kept apart here.

This data set relates to Aphis gossypii. As to the kind of experiment: Mortality of Aphis gossypii adults + progeny on sprayed pepper leaf disks; synergy/antagonism of garlic extract mixtures by Colby's formula. The format is in vivo, Aphis gossypii (cotton aphid). As to conditions: for mortality at 0.2 ppm: 0.2 ppm ai; for mortality at 0.1 ppm: 0.1 ppm ai; for mortality at 0.8 ppm: read-out: Mortality Observed, alone, 0.8 ppm ai; for mortality at 5 ppm: read-out: Mortality Observed, alone, 5 ppm ai. The procedure: Evaluating the synergistic or antagonistic effects of garlic extract and other insecticides on Aphis gossypii in pepper crop.
Pepper plants of Makko F1 cv, obtained from seeds, were grown at totally controlled conditions in a growing chamber. Healthy and untreated Pepper plants were used at least two months after seeding to get leaf disks suitable to be exposed to Aphis gossypii adults.
The aphids' adults were obtained from mass rearing; aphids were reared on cucumber and zucchini plants under controlled environmental conditions.
Suitable leaves were collected from pepper plants. Leaf disks were prepared together with arenas containing a layer of water agar on the base. 8 leaf disks per treatment were obtained from the collected leaves and 20 adults/arena were inoculated.
Each arena was sprayed, using an electric low pressure hand sprayer, with the corresponding insecticide mixture. Tween 80 surfactant, at the rate of 0.05% was added in each treatment mixture.
The untreated check was sprayed with distilled water together with Tween 80 surfactant at a dose of 0.05%.
The experimental arenas were kept in a growth chamber under controlled climatic conditions: 21° C. (±0.5), 60% RH and 16:8 light:dark photoperiod regime. The assessment of mortality (as % of died adults+progeny) was performed according to the characteristics of each Active Ingredient.
Garlic extract a) and the additional pesticide b) were priorly calibrated to obtain the Dose Response Curve and the Lethal Dose (ppm) values; according to the calibrations the mixing protocols were obtained at the proper mixing ratios.
All the statistical procedures [Student-Newman-Keuls (SNK), Dose response analysis (Probit, confidence level 95%) Anova and other calculation analysis] were performed using the ARM 2020.0 software.
The evaluation of Synergy or Antagonism of the two active ingredients was performed by using the Colby's formula, above described: […]
in which E represents the expected percentage of insecticidal control for the combination of the two insecticides at defined doses, A is the percentage of insecticidal control observed by the compound (I) at a defined dose (for example, a), B is the percentage of insecticidal control observed by the compound (II) at a defined dose (for example, b). When the ratio between the observed percentage of insecticidal control for the combination of the two insecticides at defined doses and the expected percentage of insecticidal control for the combination of the two insecticides at defined doses is greater than 1.15, the effect is synergistic.

[1] abbreviates: Aphis gossypii, foliar, alone, read-out: Mortality Observed.
Where [2] appears, read: Aphis gossypii, foliar, read-out: Mortality Observed, alone, 1 ppm ai.
[3] abbreviates: Aphis gossypii, foliar, alone, 1 ppm ai, read-out: Mortality Observed.
Setting [4] is: Aphis gossypii, foliar, alone, 2 ppm ai, read-out: Mortality Observed.

What is called mortality is the share of the test organisms that died. As to `CC1(C)[C@H](C(=O)O[C@H](C#N)c2cccc(Oc3ccccc3)c2)[C@@H]1/C=C(\Cl)C(F)(F)F` (racemic) [Lambda cyhalothrin, lambda-cyhalothrin], the mortality at 0.2 ppm under setting [1] stood at 32.1%. In addition, the mortality at 0.4 ppm (Aphis gossypii, foliar, alone, 0.4 ppm ai, read-out: Mortality Observed) is 37.6%.

In the case of `C/C(=N\C#N)N(C)Cc1ccc(Cl)nc1` [Acetamiprid, acetamiprid], the mortality at 0.01 ppm (Aphis gossypii, foliar, alone, 0.01 ppm ai, read-out: Mortality Observed) was 48.9%. Also, under “Aphis gossypii, foliar, alone, 0.05 ppm ai, read-out: Mortality Observed”, the mortality at 0.05 ppm was found to be 25%. Moreover, under setting [1], the mortality at 0.1 ppm stood at 48.9%.

In the case of `C[C@]1(COC(=O)C2CC2)[C@@H]2C[C@H](O)[C@@]3(C)Oc4cc(-c5cccnc5)oc(=O)c4[C@H](O)[C@@H]3[C@@]2(C)CC[C@@H]1OC(=O)C1CC1` [Afidopyropen, afidopyropen], the mortality at 0.02 ppm (Aphis gossypii, foliar, read-out: Mortality Observed, alone, 0.02 ppm ai) worked out at 25.3%. In addition, the mortality at 1 ppm under setting [2] is 37.3%. For the same compound, the mortality at 2 ppm (Aphis gossypii, foliar, read-out: Mortality Observed, alone, 2 ppm ai) is 49.4%.

As for `C/C=C(\C)C(=O)O[C@H]1C[C@@H](OC(C)=O)[C@@]2(C(=O)OC)CO[C@H]3[C@@H](O)[C@@](C)([C@]45O[C@@]4(C)[C@H]4C[C@@H]5O[C@@H]5OC=C[C@@]54O)[C@H]4[C@]1(CO[C@]4(O)C(=O)OC)[C@@H]32` [Azadirachtin, azadirachtin], the mortality at 1 ppm under setting [3] is 22.7%. Besides, under setting [4], the mortality at 2 ppm was found to be 28.9%.

With `FC(F)(F)c1ccc(COc2ncncc2C2OCCCO2)cc1` [Benzpyrimoxan, benzpyrimoxan], under “Aphis gossypii, foliar”, the mortality at 0.8 ppm came to 8.2% and the mortality at 5 ppm came to 42%.

`CC(C)c1cc(Oc2ccccc2)cc(C(C)C)c1NC(=S)NC(C)(C)C` [Diafenthiuron, diafenthiuron]: the mortality at 1 ppm under setting [2] came out at 22.7%. For the same compound, the mortality at 5 ppm (Aphis gossypii, foliar) amounted to 26%. Besides, the “Mortality Observed” value (alone, 5 ppm ai) is recorded as 26.22%.

With `N#Cc1nn(-c2c(Cl)cc(C(F)(F)F)cc2Cl)c(N)c1[S+]([O-])C(F)(F)F` (stereo not shown) [Fipronil, fipronil], under setting [1], the mortality at 0.1 ppm stood at 35%. Also, the mortality at 0.5 ppm (Aphis gossypii, foliar, alone, 0.5 ppm ai, read-out: Mortality Observed) was found to be 43.2%.

In the case of `N#CCNC(=O)c1cnccc1C(F)(F)F` [Flonicamid, flonicamid], the “Mortality Observed” value reads like this: (alone, 1 ppm ai) 31.4%; (alone, 2 ppm ai) 27.2%.

With `CC(=O)N1C(=O)N(NCc2cccnc2)Cc2cc(C(F)(C(F)(F)F)C(F)(F)F)ccc21` [Pyrifluquinazon, pyrifluquinazon], for the setting “Aphis gossypii, foliar, read-out: Mortality Observed, alone, 0.08 ppm ai”, the mortality at 0.08 ppm worked out at 24.9%. Also, the mortality at 0.5 ppm (Aphis gossypii, foliar, read-out: Mortality Observed, alone, 0.5 ppm ai) was found to be 42.7%. Also, the mortality at 0.8 ppm (Aphis gossypii, foliar) amounted to 47.6%.

With `CCOC(=O)OC1=C(c2cc(C)ccc2C)C(=O)N[C@]12CC[C@@H](OC)CC2` [Spirotetramat, spirotetramat], under setting [3], the mortality at 1 ppm is 23.5%. In addition, under setting [4], the mortality at 2 ppm turned out to be 44.4%.

In the case of `CC(C)[C@@H](Nc1ccc(C(F)(F)F)cc1Cl)C(=O)OC(C#N)c1cccc(Oc2ccccc2)c1` (stereo partly shown) [Tau fluvalinate, tau-fluvalinate], under setting [1], the mortality at 0.1 ppm is 28.1% and the mortality at 0.2 ppm was found to be 47.9%.

Turning to `CCc1nn(C)c(C(=O)NCc2ccc(Oc3ccc(C)cc3)cc2)c1Cl` [Tolfenpyrad, tolfenpyrad], the mortality at 0.2 ppm under setting [1] worked out at 15.9%. Moreover, the mortality at 1 ppm under setting [3] is 39.3%.

These data come from patent US20260305620A1, “NOVEL INSECTICIDAL MIXTURES FOR CONTROLLING AND PROTECTING CROPS” (ADAMA MAKHTESHIM LTD., priority 2023, published 2026).
